The results in this text go back to ChEMBL document CHEMBL5316266, “Ligand-Based Design on the Dog-Bone-Shaped BIBR1532 Pharmacophoric Features and Synthesis of Novel Analogues as Promising Telomerase Inhibitors with In Vitro and In Vivo Evaluations” (J Med Chem, 2023).

≈ marks a conversion by molar mass, not a printed value.

For data set [1], the target named is Telomerase reverse transcriptase (Homo sapiens) (UniProt O14746). The data set is described as follows: Inhibition of telomerase (unknown origin) by qRT-PCR analysis relative to control. Conditions: concentration not given here. Also noted: concentration or dose not given beside the values.
Telomerase reverse transcriptase (Homo sapiens), sequence (O14746 whole entry): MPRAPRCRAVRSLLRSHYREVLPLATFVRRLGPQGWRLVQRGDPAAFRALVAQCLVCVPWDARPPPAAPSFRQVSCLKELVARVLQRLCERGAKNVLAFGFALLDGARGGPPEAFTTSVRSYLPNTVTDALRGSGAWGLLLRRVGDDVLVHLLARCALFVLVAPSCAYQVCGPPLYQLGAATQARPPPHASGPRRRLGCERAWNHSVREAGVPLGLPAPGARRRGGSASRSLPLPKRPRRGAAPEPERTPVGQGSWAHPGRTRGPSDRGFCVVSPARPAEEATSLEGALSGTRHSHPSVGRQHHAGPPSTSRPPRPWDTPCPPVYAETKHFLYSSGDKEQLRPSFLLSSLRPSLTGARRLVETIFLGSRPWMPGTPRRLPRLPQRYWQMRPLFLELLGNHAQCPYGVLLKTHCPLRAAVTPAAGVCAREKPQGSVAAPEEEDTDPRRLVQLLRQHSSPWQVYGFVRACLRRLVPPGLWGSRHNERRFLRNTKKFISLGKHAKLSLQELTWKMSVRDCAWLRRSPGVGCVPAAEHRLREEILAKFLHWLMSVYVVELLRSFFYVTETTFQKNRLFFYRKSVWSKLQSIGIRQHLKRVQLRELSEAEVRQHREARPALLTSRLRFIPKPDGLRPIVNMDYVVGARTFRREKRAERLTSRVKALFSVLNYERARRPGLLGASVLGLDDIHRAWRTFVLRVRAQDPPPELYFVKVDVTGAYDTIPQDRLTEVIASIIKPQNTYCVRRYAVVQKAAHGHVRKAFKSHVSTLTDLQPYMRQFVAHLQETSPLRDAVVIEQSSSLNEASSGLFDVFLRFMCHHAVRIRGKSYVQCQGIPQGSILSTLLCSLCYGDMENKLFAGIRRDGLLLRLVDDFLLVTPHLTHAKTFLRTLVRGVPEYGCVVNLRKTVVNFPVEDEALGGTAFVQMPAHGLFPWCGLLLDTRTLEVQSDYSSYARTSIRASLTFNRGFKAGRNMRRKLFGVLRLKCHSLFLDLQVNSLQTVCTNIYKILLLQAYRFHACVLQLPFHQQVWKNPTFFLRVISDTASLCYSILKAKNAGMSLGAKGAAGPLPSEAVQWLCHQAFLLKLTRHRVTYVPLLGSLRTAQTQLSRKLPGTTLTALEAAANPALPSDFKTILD
Data set [2] is described as follows: Toxicity in Swiss albino mouse implanted with mouse solid Ehrlich carcinoma assessed as tubular injury at 5 mg/kg administered thrice per week for 2 weeks starting from day 7 post tumor implantation by H and E staining based histopathological analysis. Format: organism-based. Conditions: in vivo, 336 h.
Data set [3] relates to Ehrlich. The data set is described as follows: Anticancer activity against mouse solid Ehrlich carcinoma cells implanted in Swiss albino mouse assessed as decrease in serum total protein level at 5 mg/kg administered thrice per week for 2 weeks by biochemical assay tarting from day 7 post tumor implantation by biochemical assay relative to control. Format: functional. Also noted: scale not given: the % may be the effect or the level left.

Data set [4] has as its system Ehrlich. The data set is described as follows: Anticancer activity against mouse solid Ehrlich carcinoma cells implanted in Swiss albino mouse assessed as decrease in serum albumin level at 5 mg/kg administered thrice per week for 2 weeks by biochemical assay tarting from day 7 post tumor implantation by biochemical assay relative to control. The data set is classed as functional. Also noted: scale not given: the % may be the effect or the level left.

A short description of data set [5]: Toxicity in Swiss albino mouse implanted with mouse solid Ehrlich carcinoma assessed as hydropic degeneration of hepatocytes at 5 mg/kg administered thrice per week for 2 weeks starting from day 7 post tumor implantation by H and E staining based histopathological analysis. Format: organism-based. Conditions: in vivo, 336 h.
Data set [6] concerns Ehrlich. The data set is described as follows: Anticancer activity against mouse solid Ehrlich carcinoma cells implanted in Swiss albino mouse assessed as increase in lymphocyte count at 5 mg/kg administered thrice per week for 2 weeks starting from day 7 post tumor implantation by hematological assay (reference value: 35.57 +/- 8.34 %). Format: functional.
Data set [7] can be described thus: Toxicity in Swiss albino mouse implanted with mouse solid Ehrlich carcinoma assessed as confluent necrosis in liver at 5 mg/kg administered thrice per week for 2 weeks starting from day 7 post tumor implantation by H and E staining based histopathological analysis. Format: organism-based. The conditions noted are these: in vivo, 336 h.
The subject of data set [8] is Ehrlich. Kind of data set: Anticancer activity against mouse solid Ehrlich carcinoma implanted in Swiss albino mouse assessed as increase in tumor inhibition ratio at 5 mg/kg administered thrice per week for 2 weeks starting from day 7 post tumor implantation relative to control. Format: functional. Also noted: scale not given: the % may be the effect or the level left.

Data set [9] relates to Ehrlich. Kind of data set: Anticancer activity against mouse solid Ehrlich carcinoma cells implanted in Swiss albino mouse assessed as increase in RBC count measured per million cells at 5 mg/kg administered thrice per week for 2 weeks starting from day 7 post tumor implantation by hematological assay (reference value: 2.93 +/- 0.18 10^6/ml). The data set is classed as functional.

Data set [10] relates to Ehrlich. Kind of data set: Anticancer activity against mouse solid Ehrlich carcinoma cells implanted in Swiss albino mouse assessed as decrease in serum AST level at 5 mg/kg administered thrice per week for 2 weeks starting from day 7 post tumor implantation by biochemical assay relative to control. Format: functional. Also noted: scale not given: the % may be the effect or the level left.

A short description of data set [11]: Toxicity in Swiss albino mouse implanted with mouse solid Ehrlich carcinoma assessed as mesangial expansion at 5 mg/kg administered thrice per week for 2 weeks starting from day 7 post tumor implantation by H and E staining based histopathological analysis. Format: organism-based. The conditions noted are these: in vivo, 336 h.
Data set [12] relates to Ehrlich. Kind of data set: Anticancer activity against mouse solid Ehrlich carcinoma cells implanted in Swiss albino mouse assessed as increase in monocyte count at 5 mg/kg administered thrice per week for 2 weeks starting from day 7 post tumor implantation by hematological assay (reference value: 7.42 +/- 0.52 %). Format: functional.
Data set [13] deals with Ehrlich. Kind of data set: Anticancer activity against mouse solid Ehrlich carcinoma cells implanted in Swiss albino mouse assessed as decrease in serum ALT level at 5 mg/kg administered thrice per week for 2 weeks starting from day 7 post tumor implantation by biochemical assay relative to control. The data set is classed as functional. Set-up: scale not given: the % may be the effect or the level left.

Data set [14] concerns Ehrlich. Kind of data set: Anticancer activity against mouse solid Ehrlich carcinoma cells implanted in Swiss albino mouse assessed as necrotic cells at 5 mg/kg administered thrice per week for 2 weeks starting from day 7 post tumor implantation by H and E staining based histopathological analysis relative to control. Format: functional.
For data set [15], the system named is Ehrlich. The data set is described as follows: Anticancer activity against mouse solid Ehrlich carcinoma cells implanted in Swiss albino mouse assessed as increase in neutrophil count at 5 mg/kg administered thrice per week for 2 weeks starting from day 7 post tumor implantation by hematological assay (reference value: 55.43 +/- 8.44 %). The data set is classed as functional.

Data set [16] can be described thus: Toxicity in Swiss albino mouse implanted with mouse solid Ehrlich carcinoma assessed as portal tract inflammation in liver at 5 mg/kg administered thrice per week for 2 weeks starting from day 7 post tumor implantation by H and E staining based histopathological analysis. The data set is classed as organism-based. The conditions noted are these: in vivo, 336 h.

Data set [17] deals with Ehrlich. The data set is described as follows: Anticancer activity against mouse solid Ehrlich carcinoma cells implanted in Swiss albino mouse assessed as increase in hemoglobin level at 5 mg/kg administered thrice per week for 2 weeks starting from day 7 post tumor implantation by hematological assay (reference value: 4.67 +/- 0.19 g/dl). Format: functional.
The subject of the next data set is A549. The data set is described as follows: Cytotoxicity against human A549 cells assessed as inhibition of cell growth incubated for 72 hrs by MTT assay. Format: functional, cell-based. The conditions noted are these: A549, 72 h.
Data set [18] deals with MCF7. Kind of data set: Cytotoxicity against human MCF7 cells assessed as inhibition of cell growth incubated for 72 hrs by MTT assay. The data set is classed as functional, cell-based. Conditions: MCF7, 72 h.
The test system of data set [19] is MCF7. Kind of data set: Induction of apoptosis in human MCF7 cells assessed as total apoptotic cells incubated for 48 hrs by Annexin-V/FITC staining based flow cytometry (reference value: 1.73 %). Format: functional. Background: In flow cytometry, cells or beads pass a laser one at a time.
Data set [20] relates to Ehrlich. Kind of data set: Anticancer activity against mouse solid Ehrlich carcinoma implanted in Swiss albino mouse assessed as reduction in tumor volume at 5 mg/kg administered thrice per week for 2 weeks starting from day 7 post tumor implantation relative to control. Format: functional. Also noted: scale not given: the % may be the effect or the level left.
Data set [21] has as its system Ehrlich. The data set is described as follows: Anticancer activity against mouse solid Ehrlich carcinoma implanted in Swiss albino mouse assessed as reduction in tumor volume at 5 mg/kg administered thrice per week for 2 weeks starting from day 7 post tumor implantation relative to DOX. The data set is classed as functional. Set-up: scale not given: the % may be the effect or the level left.

Data set [22] concerns MCF7. The data set is described as follows: Cell cycle arrest in human MCF7 cells assessed as accumulation of cells at S phase at 3.1 uM incubated for 48 hrs by PI staining based flow cytometry (reference value: 28.71 %). Format: functional.
For data set [23], the system named is Ehrlich. The data set is described as follows: Anticancer activity against mouse solid Ehrlich carcinoma implanted in Swiss albino mouse assessed as reduction in tumor weight at 5 mg/kg administered thrice per week for 2 weeks starting from day 7 post tumor implantation relative to DOX. The data set is classed as functional. Also noted: scale not given: the % may be the effect or the level left.

For data set [24], the system named is Ehrlich. Kind of data set: Anticancer activity against mouse solid Ehrlich carcinoma implanted in Swiss albino mouse assessed as reduction in tumor weight at 5 mg/kg administered thrice per week for 2 weeks starting from day 7 post tumor implantation relative to control. Format: functional. Also noted: scale not given: the % may be the effect or the level left.

The inhibition is the drop in the measured response relative to a control, in per cent. A word on the IC50: it is the point on the concentration scale where inhibition reaches its midpoint.

As for `N#Cc1c(NC(=O)CSc2ccc(-c3ccc(Br)cc3)nn2)sc2c1CCC2`, the inhibition in [1] amounted to 10.8%.
Same read-out and setting: next, `N#Cc1c(NC(=O)CSc2ccc(-c3ccc(F)cc3)nn2)sc2c1CCC2`: 10.8%; `N#Cc1c(NC(=O)CSc2ccc(-c3ccc(Cl)cc3)nn2)sc2c1CCC2`: 10.8%; `N#Cc1c(NC(=O)CSc2ccc(-c3ccccc3)nn2)sc2c1CCC2`: 10.8%.
On the same count and under the same terms, next, `COc1ccc(-c2ccc(SCC(=O)Nc3sc4c(c3C#N)CCC4)nn2)cc1`: 10.8%; `N#Cc1c(NC(=O)CSc2ccc(-c3ccc(Cl)cc3)nn2)sc2c1CCCC2`: 10.8%.
Consider `COc1cccc2c1C(=O)c1c(O)c3c(c(O)c1C2=O)C[C@@](O)(C(=O)CO)C[C@@H]3O[C@H]1C[C@H](N)[C@H](O)[C@H](C)O1` [DOXORUBICIN], for which the Activity entry is “Toxic” in [2]; 48.4% with Ehrlich [3]; 35.71% in the data set with Ehrlich [4]; “Toxic” in data set [5]; 36.29% with Ehrlich [6]; “Toxic” in data set [7]. Further, the Activity in the data set on Ehrlich [8] is given as 60.4%; in the data set with Ehrlich [9] it was 4.94 10^6/ml; with Ehrlich [10], 23.43%; in data set [11], “Toxic”; with Ehrlich [12], 8.42%; in the data set on Ehrlich [13], 39.16%. Further, the Activity in the data set on Ehrlich [14] is above 90%; with Ehrlich [15], 54.14%; in data set [16], “Non-Toxic”; in the data set on Ehrlich [17] it was 7.34 g/dL.
Regarding `N#Cc1c(NC(=O)CSc2ccc(-c3ccccc3)nn2)sc2c1CCCC2`, the inhibition in data set [1] was determined as 10.8%.
Consider `Cc1ccc(-c2ccc(SCC(=O)Nc3sc4c(c3C#N)CCCC4)nn2)cc1`, for which the values for the IC50 in the data set with A549 and in the data set with MCF7 [18] were 63.8 µg/mL (≈ 152 µM) and 34.5 µg/mL (≈ 82.1 µM), respectively. In data set [1], this compound showed an inhibition of 49.1%.
In [1], `N#Cc1c(NC(=O)CSc2ccc(-c3ccc(Br)cc3)nn2)sc2c1CCCC2` displayed an inhibition of 10.8%.
On the same count and under the same terms, next, `COc1ccc(-c2ccc(SCC(=O)Nc3sc4c(c3C#N)CCCC4)nn2)cc1`: 10.8%.
As to `N#Cc1c(NC(=O)CSc2ccc(-c3ccc(F)cc3)nn2)sc2c1CCCC2`, the inhibition in [1] is 10.8%.
In the case of `Cc1ccc(-c2ccc(SCC(=O)Nc3sc4c(c3C#N)CCC4)nn2)cc1`, the Activity entry is reported as “Toxic” in [2]; 55.54% with Ehrlich [3]; 28.31% in the data set on Ehrlich [4]; 42.51% in the data set with MCF7 [19]; “Toxic” in data set [5]; 62.12% with Ehrlich [20]. For the same compound, the Activity was 39.14% with Ehrlich [6]; “Non-Toxic” in data set [7]; 62.12% with Ehrlich [8]; 4.53 10^6/ml with Ehrlich [9]; 4.3% in the data set with Ehrlich [21]; 29.77% in the data set on Ehrlich [10]. For the same compound, the Activity in the data set with MCF7 [22] is reported as 42.02%; in data set [11], “Toxic”; in the data set on Ehrlich [12] it was 9.72%; in the data set on Ehrlich [13], 36.12%; in the data set on Ehrlich [14], above 90%; in the data set with Ehrlich [23], 8.48%. For the same compound, the Activity in the data set with Ehrlich [24] is 74.34%; in [16], “Toxic”; in the data set on Ehrlich [17], 6.74 g/dL. In addition, the IC50 in the data set with A549 was found to be 17.1 µg/mL (≈ 42 µM); with MCF7 [18] it was 9.47 µg/mL (≈ 23.3 µM).
